Test results from patent publication US20110045065A1, “SUBSTANCE HAVING ANTIOXIDANT, GEROPROTECTIVE AND ANTI-ISCHEMIC ACTIVITY AND METHOD FOR THE PREPARATION THEREOF” (priority 2005, published 2011).

Assays:
[1] = tested on: external segments of photoreceptor cells; assay: Ascorbate-induced peroxidation of external segments of photoreceptor cells; assay type: biochemical, pig; conditions: for Inhibition: 30 min of reacting; for Concentration of TBK-active products: 17 mM compound, 0.5 mM ascorbic acid
Description: The external segments of photoreceptor cells are obtained from pig retinas according to standard procedure, using methods of differential centrifuging in a saccharose density gradient. […] Subsequently, the process was stopped by 15% trichloroacetic acid, and the concentration of TBK-active products has been determined. Samples being free of compound Ic were used as a control.
In these experiments a comparison of the speed of ascorbate-induced peroxidation of external segments of photoreceptor cells of pig eyes has been carried out, said comparison being determined with respect to the accumulation of TBK-active products in the presence of different compound I salts.

[2] = tested on: acute myocardial ischemia (occlusion of the coronary artery of rats); assay: Sizes of necrosis and ischemia zones in acute myocardial ischemia; assay type: in vivo, rat; conditions: rats, within 4 hours after occlusion of the coronary artery
Method: The experiments are carried out with non-pedigree male rats having a weight of 250-300 g, which have been anesthetized with sodium ethaminale (40 mg/kg intraperitoneally). A myocardial infarction was modeled for animals, transferred to controlled breathing, by ligation of a descending branch of the left-hand coronary artery to a level of the lower edge of an auricula atrii.
The sizes of necrosis zones and ischemia zones have been determined within 4 hours after occlusion of the coronary artery by a differential indicator method, the principle of which is based on separate quantitative determination of Evans' blue (indicator of an ischemia zone) and red phormazane (indicator of an necrosis zone).

[3] = Antiradical activity by chemiluminescence (rate constant k7); assay type: physicochemical; conditions: speed constant of reaction with ethyl-benzene peroxide radicals
Method: The efficiency of 3-hydroxypyridine derivatives as inhibitors of free radical reactions was determined by hemiluminescent method by means of measurement of speed constants of their reaction with ethyl-benzene k7 peroxide radicals.
The measurements of intensity of chemiluminescence (HL) have been carried out with an apparatus CNK-7, designed and made by IHF RAN USSR. A photomultiplier FAU-38 is used as an optical receiver. The fixed concentration of radicals during oxidation of […] (cumole) is controlled by an initiator being azo-bis-isobutyronitrile.
In order to increase HL emission the activator chelate Eu (europium tristenoyl triphtoroacetonate with 1,10-phenatroline) has been used that has allowed to conduct measurements at low speed values of radical initiation (W1=10^−8-10^−9 mol/I.s.) and, therefore, at small amounts of added sample. A weighed amount of samples studied was diluted in an suitable solvent (chlorobenzene or acetonitrile) and a small amount of the prepared solution (0.1-0.25 ml) was added to the reaction mixture (5-6 ml), arranged in a temperature-controlled reaction vessel of the HL-device. The change of emission intensity was recorded.

[4] = tested on: lipofuscin induced cardiolipin photoperoxidation; assay: Inhibition of lipofuscin induced cardiolipin liposome photoperoxidation; assay type: biochemical, human; conditions: for Concentration of TBK-active products / Inhibition: 2 mM compound
Method: Liposomes are prepared from methanolic solution of cardiolipin (initial concentration: 5 mg/ml) by evaporation of methanol and solubilization of cardiolipin in a phosphate buffer. A mixture comprising a suspension of liposomes and lipofuscin granules, isolated from tissue of a retinal pigmentary epithelium of a human eye, is subjected to irradiation with intensive blue light under constant stirring. Concentration of lipid peroxidation products (TBK-active products) is determined after 20, 40, 60 and 90 minutes. The experimental sample contained 2 mM of a solution of compound Ic, or 2 mM of a solution of mexydole.

Cc1cc(C)c(O)c(C)n1.O=C(O)CC(=O)O [Compound Ib, 2,4,6-trimethyl-3-oxypyridine malonate]
Speed of accumulation of TBK-active products for 30 min of reacting ([1]; compound 44 mM): 0.23 nmol/mg
Inhibition ([1]; compound 44 mM): 70%
Concentration of TBK-active products ([1]; response time 0 min): 1 relative units
Concentration of TBK-active products ([1]; response time 15 min): 2.70 relative units
Concentration of TBK-active products ([1]; response time 30 min): 5.09 relative units

Cc1cc(C)c(O)c(C)n1.O=C(O)CC(O)C(=O)O [Compound Id, 2,4,6-trimethyl-3-oxypyridine malate]
Speed of accumulation of TBK-active products for 30 min of reacting ([1]; compound 43 mM): 0.1 nmol/mg
Inhibition ([1]; compound 43 mM): 87%

Cc1cc(C)c(O)c(C)n1.O=C(O)C(=O)O [Compound Ia, 2,4,6-trimethyl-3-oxypyridine oxalate]
Speed of accumulation of TBK-active products for 30 min of reacting ([1]; compound 44 mM): 0 nmol/mg
Inhibition ([1]; compound 44 mM): 100%

CCc1ccc(O)c(C)n1.O=C(O)CCC(=O)O [Mexydole, 2-methyl-6-ethyl-3-hydroxypyridine succinate, reference compound]
Ratio of necrosis zone to ischemia zone ([2]; 26 mg/kg): 46 ± 5.6%
Ratio of necrosis zone to total mass of the myocardium ([2]; 26 mg/kg): 8 ± 1.4%
k7 × 10^−4 [3]: 4.5 l/mol × sec
Concentration of TBK-active products ([4]; radiation time 0 min): 1.83 nmol/mg lipid
Inhibition ([4]; radiation time 0 min): 0%
Concentration of TBK-active products ([4]; radiation time 20 min): 2.84 nmol/mg lipid
Inhibition ([4]; radiation time 20 min): 5%
Concentration of TBK-active products ([4]; radiation time 40 min): 3.5 nmol/mg lipid
Inhibition ([4]; radiation time 40 min): 0%
Concentration of TBK-active products ([4]; radiation time 60 min): 4.5 nmol/mg lipid
Inhibition ([4]; radiation time 60 min): 0%
Concentration of TBK-active products ([4]; radiation time 90 min): 5.0 nmol/mg lipid
Inhibition ([4]; radiation time 90 min): 7%
Inhibiting / protective effect regarding phototoxic action of lipofuscin granules ([4]; result in words): practically did not show an inhibiting effect

O=C(NCCO[N+](=O)[O-])c1cccnc1 [Nicorandile]
Ratio of necrosis zone to ischemia zone ([2]; 12 mg/kg): 42 ± 5.4%
Ratio of necrosis zone to total mass of the myocardium ([2]; 12 mg/kg): 10 ± 1.6%
